Test results: US11396517B1, “Exo-aza spiro inhibitors of menin-MLL interaction” (Janssen Pharmaceutica NV, priority 2017, dated 2022)
Read-outs that look alike come from different tables or passages of the source.

Tests used:
menin = target: T1, menin (Homo sapiens, UniProt O00255, T541A); test: Menin/MLL homogenous time-resolved fluorescence (HTRF) assay; assay type: binding; settings: location 2; read-out: (2) location 2 Menin HTRF assay (IC50 (nM))
T1 construct: Menin (a.a. 1-610-6×his tag)
T1 sequence (O00255 with tags, fused parts or gaps T541A): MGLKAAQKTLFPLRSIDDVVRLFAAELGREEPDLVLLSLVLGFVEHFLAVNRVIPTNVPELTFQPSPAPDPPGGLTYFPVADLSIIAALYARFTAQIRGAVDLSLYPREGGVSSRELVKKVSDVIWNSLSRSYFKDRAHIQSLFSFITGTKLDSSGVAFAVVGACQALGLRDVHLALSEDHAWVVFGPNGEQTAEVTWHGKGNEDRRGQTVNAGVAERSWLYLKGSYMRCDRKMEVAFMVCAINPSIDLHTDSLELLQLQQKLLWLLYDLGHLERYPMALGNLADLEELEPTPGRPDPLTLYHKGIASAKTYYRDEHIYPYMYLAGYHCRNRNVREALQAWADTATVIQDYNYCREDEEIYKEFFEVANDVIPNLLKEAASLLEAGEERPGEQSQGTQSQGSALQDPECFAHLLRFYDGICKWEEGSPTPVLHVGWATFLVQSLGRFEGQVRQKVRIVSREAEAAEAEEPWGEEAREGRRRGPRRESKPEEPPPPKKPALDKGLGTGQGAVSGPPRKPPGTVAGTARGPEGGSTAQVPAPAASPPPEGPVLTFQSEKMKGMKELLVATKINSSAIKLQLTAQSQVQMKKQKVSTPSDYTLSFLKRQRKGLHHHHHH
In short: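 Displacement of 75 nM FITC-MBM1 from terbium-cryptate-labeled His-tagged menin 1-610 ([…]) was read as the 520/490 nm HTRF ratio. Compound (11-point, 3-fold series) got 5 min with menin before peptide, then 15 min at ambient; 0.5% DMSO, Tris pH 7.5.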

MV-4-11 = test: Proliferation assay B (spheroid assay) MV-4-11; assay type: cell-based, human; settings: MV-4-11 cells, confluence at day 8, absolute IC50, read-out: (3b) Spheroid assay MV-4--11 (IC50(μM)) Assay B
Protocol: 3b) Proliferation Assay B
The anti-proliferative effect of menin/MLL protein/protein interaction inhibitor test compounds was assessed in human leukemia cell lines. The cell lines MV-4-11 and MOLM14 harbor MILL translocations and express the MILL fusion proteins MLL-AF4 and MLL-AF9, respectively, as well as the wildtype protein from the second allele. […] K562 was used as a control cell line containing two MLL wildtype alleles in order to exclude compounds that display general cytotoxic effects.
MV-4-11 and MOLM14 were cultured in RPMI-1640 (Sigma Aldrich) supplemented with 10% fetal bovine serum (HyClone), 2 mM L-glutamine (Sigma Aldrich) and 50 μg/ml gentamycin (Gibco). K562 were propagated in RPMI-1640 (Sigma Aldrich) supplemented with 20% fetal bovine serum (HyClone), 2 mM L-glutamine (Sigma Aldrich) and 50 μg/ml gentamycin (Gibco).
In order to assess the anti-proliferative effects, 1,500 MV-4-11, 300 MOLM14 cells or 750 K562 cells were seeded in 200 μl media per well in 96-well round bottom, ultra-low attachment plates (Costar, catalogue number 7007). Cell seeding numbers were chosen based on growth curves to ensure linear growth throughout the experiment. Test compounds were added at different concentrations and the DMSO content was normalized to 0.3%. Cells were incubated for 8 d at 37° C. and 5% CO2. Spheroid like growth was measured in real-time by live-cell imaging (IncuCyteZOOM, Essenbio, 4× objective) acquiring images at day 8. Confluence (%) as a measure of spheroid size was determined using an integrated analysis tool.
In order to determine the effect of the test compounds over time, the confluence in each well as a measure of spheroid size, was calculated. Confluence […] at the beginning of the experiment (t=0) was used as baseline for the calculation.
Absolute IC50 values were calculated as percent change in confluence as follows:
LC=Low Control: cells treated with 1 μM of the cytotoxic agent staurosporin
HC=High Control: Mean confluence (%) (DMSO treated cells) % Effect=100−(100*(Sample−LC)/(HC−LC))
To determine the IC50 a curve is fitted to the plot of % Effect vs Log 10 compound concentration using a sigmoidal fit with a variable slope and fixing the maximum to 100% and the minimum to 0%.

MOLM14 = test: Proliferation assay B (spheroid assay) MOLM14; assay type: cell-based, human; settings: MOLM14 cells, confluence at day 8, absolute IC50, read-out: (3b) Spheroid assay MOLM14 (IC50(μM)) Assay B
In short: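 IC50 derived from % effect on day-8 imaged confluence, scaled between DMSO-treated cells (high) and 1 μM staurosporine (low), using a variable-slope fit constrained 0-100%. Cells seeded as spheroids in ultra-low-attachment plates and exposed to compound for 8 days, 0.3% DMSO.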

IC50 (menin) [nM] | IC50 (MV-4-11; Homo sapiens, MV4-11, 192 h) [µM] | IC50 (MOLM14; Homo sapiens, MOLM-14, 192 h) [µM] | IC50 (MOLM14) [µM] | IC50 (MV-4-11) [µM] | SMILES
16.4 | > 3.75 | > 3.75 |  |  | Cc1nc(N2CCC3(CC(Nc4ccc(CC#N)cc4)C3)C2)c2cc(CC(F)(F)F)sc2n1 (mixture of isomers) [Compound 404]
34.1 | > 3.75 | > 3.75 |  |  | CNC(=O)c1ccc(NC2CC3(CCN(c4ncnc5sc(CC(F)(F)F)cc45)C3)C2)cc1C#N (mixture of isomers) [Compound 422]
2.5 | 0.3 | 1.21 |  |  | CN(C)CCNC(=O)c1ccc(NC2CC3(CCN(c4ncnc5sc(CC(F)(F)F)cc45)C3)C2)cc1 (racemic) [Compound 73]
2.9 | 0.33 | 0.48 |  |  | CN1CCC(c2cc(NC3CC4(CCN(c5ncnc6sc(CC(F)(F)F)cc56)C4)C3)ccc2C#N)CC1 (racemic) [Compound 78]
97.3 | 2.43 | > 3.75 |  |  | CC(C)(NC1CCC2(C1)CN(c1ncnc3sc(CC(F)(F)F)cc13)C2)c1ccccc1 (racemic) [Compound 276]
1 | 0.14 | 0.62 |  |  | CNC(=O)c1ccc(NC2CC3(CCN(c4ncnc5sc(CC(F)(F)F)cc45)C3)C2)c(F)c1 (single isomer, unassigned) [Compound 67]
2.8 | 0.23 | 0.5 |  |  | CNC(=O)c1ccc(NC2CC3(CCN(c4ncnc5sc(CC(F)(F)F)cc45)C3)C2)nc1 (single isomer, unassigned) [Compound 72]
1.3 | 0.05 |  | 0.46 |  | CN(C)CCNC(=O)c1ccc(NC2CC3(CCN(c4ncnc5sc(CC(F)(F)F)cc45)C3)C2)cc1 (single isomer, unassigned) [Compound 75]
14.2 | 0.17 | 0.59 |  |  | CN1CCC(c2cc(NC3CC4(CCN(c5ncnc6sc(CC(F)(F)F)cc56)C4)C3)ccc2C#N)CC1 (single isomer, unassigned) [Compound 79]
2.3 | 0.06 | 0.56 |  |  | O=C(NCCO)c1ccc(NC2CC3(CCN(c4ncnc5sc(CC(F)(F)F)cc45)C3)C2)cc1 (single isomer, unassigned) [Compound 84]
34.7 | 2.47 | > 3.75 |  |  | FC(F)(F)Cc1cc2c(N3CCC4(CC(Nc5cccnc5)C4)C3)ncnc2s1 (single isomer, unassigned) [Compound 153]
7.8 | 0.43 | 2.83 |  |  | CNC(=O)c1ccc(NC2CC3(CCN(c4ncnc5sc(CC(F)(F)F)cc45)C3)C2)c(F)c1F (single isomer, unassigned) [Compound 226]
30.2 |  |  | 0.71 | 0.97 | CN1CC=C(c2cc(NC3CC4(CCN(c5ncnc6sc(CC(F)(F)F)cc56)C4)C3)ccc2C(C)(C#N)C#N)CC1 (single isomer, unassigned) [Compound 247]
2.8 | 0.17 |  | 1.5 |  | CN(C)CCNC(=O)c1ccc(NC2CC3(CCN(c4ncnc5sc(CC(F)(F)F)cc45)C3)C2)nc1 (single isomer, unassigned) [Compound 254]
15.1 | 0.69 | 0.81 |  |  | Cc1nc(N2CCC3(CC(NCc4ccccc4)C3)C2)c2cc(CC(F)(F)F)sc2n1 (single isomer, unassigned) [Compound 262]
98.2 | > 3.75 | > 3.75 |  |  | COc1nc(N2CCC3(CC(Nc4ccccc4)C3)C2)c2cc(CC(F)(F)F)sc2n1 (single isomer, unassigned) [Compound 267]
23.7 | 2.48 | > 3.75 |  |  | O=c1[nH]c2cc(N[C@@H]3CCC4(C3)CN(c3ncnc5sc(CC(F)(F)F)cc35)C4)ccc2o1 (single isomer, unassigned) [Compound 286]
22.8 | 3.37 | > 3.75 |  |  | O=c1[nH]c2cc(N[C@H]3CCC4(C3)CN(c3ncnc5sc(CC(F)(F)F)cc35)C4)ccc2o1 (single isomer, unassigned) [Compound 287]
256 |  |  | > 3.75 | > 3.75 | O=C(c1ccc(NC2CC3(CCN(c4ncnc5sc(CC(F)(F)F)cc45)C3)C2)cc1)N1CCOCC1 (single isomer, unassigned) [Compound 334]
5.2 |  |  | 1.55 | 0.46 | O=C(c1ccc(NC2CC3(CCN(c4ncnc5sc(CC(F)(F)F)cc45)C3)C2)cc1)N1CCOCC1 (single isomer, unassigned) [Compound 335]
61.7 |  |  | > 3.75 | > 3.75 | CS(=O)(=O)NC(=O)c1ccc(NC2CC3(CCN(c4ncnc5sc(CC(F)(F)F)cc45)C3)C2)cc1 (single isomer, unassigned) [Compound 361]
836 | > 3.75 | > 3.75 |  |  | CS(=O)(=O)NC(=O)c1ccc(NC2CC3(CCN(c4ncnc5sc(CC(F)(F)F)cc45)C3)C2)cc1 (single isomer, unassigned) [Compound 362]
68.7 | > 3.75 | > 3.75 |  |  | COC[C@@H]1CN(C(=O)c2ccc(NC3CC4(CCN(c5ncnc6sc(CC(F)(F)F)cc56)C4)C3)cc2)CCO1 (single isomer, unassigned) [Compound 410]
2290 | > 3.75 | > 3.75 |  |  | O=C(c1ccc(NC2CC3(CCN(c4ncnc5sc(CC(F)(F)F)cc45)C3)C2)cc1)N1CC2(COC2)C1 (single isomer, unassigned) [Compound 413]
5.5 | 0.62 | 1.91 |  |  | Cn1c(=O)[nH]c2ccc(CN[C@@H]3CCC4(C3)CN(c3ncnc5sc(CC(F)(F)F)cc35)C4)cc21 (stereo in doubt) [Compound 110]
65 | 0.62 | 3.06 |  |  | Cn1c(=O)[nH]c2ccc(CN[C@H]3CCC4(C3)CN(c3ncnc5sc(CC(F)(F)F)cc35)C4)cc21 (stereo in doubt) [Compound 111]
30.6 | 2.06 | 2.32 |  |  | COc1nc(N2CC3(CC[C@H](NCc4cccc(-c5cc[nH]n5)c4)C3)C2)c2cc(CC(F)(F)F)sc2n1 (stereo in doubt) [Compound 116]
32.7 | 0.98 | 1.6 |  |  | CNc1nc(N2CC3(CC[C@@H](NCc4cccc(-c5cc[nH]n5)c4)C3)C2)c2cc(CC(F)(F)F)sc2n1 (stereo in doubt) [Compound 121]
49.3 | 0.44 | 1.21 |  |  | CNc1nc(N2CC3(CC[C@H](NCc4cccc(-c5cc[nH]n5)c4)C3)C2)c2cc(CC(F)(F)F)sc2n1 (stereo in doubt) [Compound 122]
